Measurements: patent publication EP0023103A1, “Antifungal imidazole derivatives, process for their preparation and pharmaceutical compositions thereof” (Pfizer Limited, priority 1979, dated 1981)

System: Candida albicans
Experiment: In vitro anti-fungal activity: minimum inhibitory concentration (m.i.c.) on agar plates
Format: cell-based
Settings: geometrical mean of results against a panel of 12 strains of Candida albicans; agar plates incubated for 48 hours at 37°C

SMILES | Mean m.i.c.
C=CC(C)C(O)(Cn1ccnc1)c1ccc(Cl)cc1Cl (single isomer, unassigned) [Example 3a, 2-(2,4-Dichlorophenyl)-1-(1-imidazolyl)-3-methyl-pent-4-en-2-ol] | 18.0
C=CC(C)C(O)(Cn1ccnc1)c1ccc(Cl)cc1Cl (single isomer, unassigned) [Example 3b, 2-(2,4-Dichlorophenyl)-1-(1-imidazolyl)-3-methyl-pent-4-en-2-ol] | 11.0
C=CCC(O)(Cn1ccnc1)c1ccc(Cl)cc1Cl (stereo not shown) [Example 1, 2-(2,4-Dichlorophenyl)-1-(1-imidazolyl)-pent-4-en-2-ol] | 22.0
CCCC(O)(Cn1ccnc1)c1ccc(Cl)cc1Cl (stereo not shown) [Example 2, 2-(2,4-Dichlorophenyl)-1-(1-imidazolyl)-pentan-2-ol] | 12.5
CCC(C)C(O)(Cn1ccnc1)c1ccc(Cl)cc1Cl (stereo not shown) [Example 4, 2-(2,4-Dichlorophenyl)-1-(1-imidazolyl)-3-methyl-pentan-2-ol] | 12.0
CCC(O)(Cn1ccnc1)c1ccc(Cl)cc1Cl (stereo not shown) [Example 5, 2-(2,4-dichlorophenyl)-1-(1-imidazolyl)-butan-2-ol] | 21.0
CCCCC(O)(Cn1ccnc1)c1ccc(Cl)cc1Cl (stereo not shown) [Example 6] | 3.8
CC(C)(C)C(O)(Cn1ccnc1)c1ccc(Cl)cc1Cl (stereo not shown) [Example 7] | 11.0
CC(C)C(O)(Cn1ccnc1)c1ccc(Cl)cc1Cl (stereo not shown) [Example 8] | 21.0
CCCCCC(O)(Cn1ccnc1)c1ccc(Cl)cc1Cl (stereo not shown) [Example 9] | 5.2
CCCCCCC(O)(Cn1ccnc1)c1ccc(Cl)cc1Cl (stereo not shown) [Example 10, 2-(2,4-dichlorophenyl)-1-(1-imidazolyl)-octan-2-ol] | 3.1
C=CCCC(O)(Cn1ccnc1)c1ccc(Cl)cc1Cl (stereo not shown) [Example 11] | 6.8
OC(CC1CC1)(Cn1ccnc1)c1ccc(Cl)cc1Cl (stereo not shown) [Example 15] | 6.3
CC(C)CC(O)(Cn1ccnc1)c1ccc(Cl)cc1Cl (stereo not shown) [Example 16] | 5.6
C=CCCCC(O)(Cn1ccnc1)c1ccc(Cl)cc1Cl (stereo not shown) [Example 17] | 8.4
CC(C)CCC(O)(Cn1ccnc1)c1ccc(Cl)cc1Cl (stereo not shown) [Example 18] | 3.8
CCCCCCCC(O)(Cn1ccnc1)c1ccc(Cl)cc1Cl (stereo not shown) [Example 19] | 5.6
CCCCC(O)(Cn1ccnc1)c1ccc(Cl)cc1 (stereo not shown) [Example 20, 2-(4-Chlorophenyl)-1-(1-imidazolyl)-hexan-2-ol] | 38.0
CCCCC(O)(Cn1ccnc1)c1ccccc1Cl (stereo not shown) [Example 21, 2-(2-Chlorophenyl)-1-(1-imidazolyl)-hexan-2-ol] | 18.0
